Source: US11434212B2, “Bicyclic compound as a caspase inhibitor” (CHIA TAI TIANQING PHARMACEUTICAL GROUP CO., LTD., priority 2017, dated 2022)

Key:
Caspase-8 = molecular target: T1, Caspase-8 (Homo sapiens, UniProt Q14790); test: In vitro inhibitory activity on Caspase-8 (BioVision Caspase-8 Inhibitor Screening Kit); format: biochemical; conditions: fluorogenic substrate 50 μM; test concentrations 1000 nM to 0.32 nM
T1 construct: purchased BioVision K158-100
Procedure: (§1) Caspase Inhibitor Screening Kit for BioVision was used in this experiment to test the inhibitory activity of the test compounds on Caspase.
Caspase-8 Inhibitor Screening Kit (BioVision #K158-100)
(§2) Note: Each caspase enzymatic experiment uses the reagents in corresponding kit thereof. Each enzyme was dissolved in 550 μl of the corresponding 2× reaction buffer, sub-packed and stored at −80° C., respectively.
(§3) 1) The compound was diluted to a 200*test concentration with DMSO via the multiple dilution, then to a 2*test concentration with ddH2O, and added to a 384-well experimental plate at 12.5 μl per well. Test compounds and control compounds were tested at 6 concentration points, test concentrations ranging from 1000 nM to 0.32 nM. The ddH2O containing 1% DMSO was added to the 0% inhibition control well, and a high concentration of the control compound was added to the 100% inhibition control well (final concentration: 5 μM).
(§4) 2) 2× reaction buffer containing 10 mM DTT was prepared. The enzyme caspase stock solution was diluted 5-fold with 2× reaction buffer containing 10 mM DTT and added to a 384-well experimental plate at 6.25 μl per well. After being mixed, the enzyme and compounds were incubated at 37° C. for 30 minutes.
(§5) 3) The fluorogenic substrate of the enzyme caspase was diluted 5-fold with 2× reaction buffer containing 10 mM DTT, and then added to a 384-well experimental plate at 6.25 μl per well. The total reaction volume was 25 μl, the final concentration of the substrate was 50 μM, and the final concentration of DMSO was 0.5%. After the substrate was added, the 384-well experimental plate was incubated at 37° C. for 30 minutes.
(§6) 4) The fluorescence intensity (excitation light wavelength was 400 nm, emission light wavelength was 505 nm) was measured by using a multi-function microplate reader. Fluorescence intensity was used to calculate the inhibitory effect of the compounds on Caspase. GraphPad Prism software was used for fitting compound inhibition curves and calculating IC50 values.

Caspase-3 = molecular target: T2, Caspase-3 (Homo sapiens, UniProt P42574); test: In vitro inhibitory activity on Caspase-3 (BioVision Caspase-3 Inhibitor Screening Kit); format: biochemical; conditions: fluorogenic substrate 50 μM; test concentrations 1000 nM to 0.32 nM
T2 construct: purchased BioVision K153-100
T2 sequence (P42574 29-175 limits assumed): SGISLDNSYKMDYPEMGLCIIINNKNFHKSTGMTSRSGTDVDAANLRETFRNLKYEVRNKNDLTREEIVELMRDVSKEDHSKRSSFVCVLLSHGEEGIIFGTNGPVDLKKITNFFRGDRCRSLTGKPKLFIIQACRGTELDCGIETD
T2 sequence (P42574 176-277 limits assumed): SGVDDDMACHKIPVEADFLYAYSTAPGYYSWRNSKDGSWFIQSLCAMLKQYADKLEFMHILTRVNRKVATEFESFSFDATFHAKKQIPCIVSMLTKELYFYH
Procedure: as §1
Caspase-3 Inhibitor Screening Kit (BioVision #K153-100)
as §2, §3, §4, §5, §6

Caspase-1 = molecular target: T3, Caspase-1 (Homo sapiens, UniProt P29466); test: In vitro inhibitory activity on Caspase-1 (BioVision Caspase-1 Inhibitor Screening Kit); format: biochemical; conditions: fluorogenic substrate 50 μM; test concentrations 1000 nM to 0.32 nM
T3 construct: purchased BioVision K151-100
T3 sequence (P29466 120-297 limits assumed): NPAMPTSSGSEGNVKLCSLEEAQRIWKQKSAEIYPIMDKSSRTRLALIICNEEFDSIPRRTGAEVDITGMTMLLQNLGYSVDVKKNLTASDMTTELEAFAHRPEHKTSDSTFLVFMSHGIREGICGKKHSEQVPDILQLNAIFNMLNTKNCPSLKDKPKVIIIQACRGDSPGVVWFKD
T3 sequence (P29466 317-404 limits assumed): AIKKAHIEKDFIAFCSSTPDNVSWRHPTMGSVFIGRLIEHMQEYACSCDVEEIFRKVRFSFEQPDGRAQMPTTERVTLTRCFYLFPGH
Procedure: as §1
Caspase-1 Inhibitor Screening Kit (BioVision #K151-100)
as §2, §3, §4, §5, §6

[1] = Mouse pharmacokinetic study in plasma and liver after oral administration; format: in vivo, male C57BL/6J mice
From the text: This experiment intended to investigate the pharmacokinetics in plasma and liver of male C57BL/6J mice after oral administration of the compounds.
Mice were randomly divided into three groups (3 male mice per group). The compound was formulated into the specified formulation. Oral formulations may be clear or uniform suspensions. Animals were intragastrically administered with a given dose of the preparation, respectively.
Whole blood samples were collected from animals through jugular vein puncture at 3 time points of 30 minutes, 2 hours, and 6 hours after administration, approximately 25 μL per sample; while the liver was collected at each time point.
The plasma samples were added to centrifuge tubes containing anticoagulant, and centrifuged at 4° C., 3000 g for 15 min, and the supernatant plasma was taken and quickly frozen on dry ice and then stored in a refrigerator at −70±10° C. until LC-MS/MS analysis was performed.
The blood outside the liver was sopped up with absorbent paper, and the weight of the liver was weighed, and then placed in liquid nitrogen to freeze. MeOH/15 mM PBS (1:2) at a volume-weight ratio of 1:5 was added thereto, and then the homogenization was performed at 14000 rpm for 2 minutes. It was then stored in a refrigerator at −70±10° C. until LC-MS/MS analysis was performed.
The plasma drug concentration data for the compounds were processed with the non-compartment model using WinNonlin™ Version 6.3.0 (Pharsight, Mountain View, Calif.) pharmacokinetic software. The maximal concentration (Cmax), maximal concentration time (Tmax) and quantitative end time were directly obtained from the plasma concentration-time chart.
The following pharmacokinetic parameters were calculated by using logarithmic linear trapezoidal method: elimination phase half-life (T1/2); the in vivo mean residence time of the drug from point 0 to the last time point (MRT0-last); the in vivo mean residence time of the drug from point 0 to infinite time (MRT0-ifn); the area under time-plasma concentration curve from point 0 to the last time point (AUC0-last); the area under time-plasma concentration curve from point 0 to infinite time (AUC0-inf).
For individual plasma concentrations less than BQL, the one occurred before Tmax was calculated as 0, and the one occurred after Tmax was directly excluded. All parameters and ratios were reported in the forms of three significant digits.
The pharmacokinetic parameters of this experiment were calculated according to the theoretical blood collection times and the theoretical administration concentrations in the protocol. The deviations between the actual administration concentrations and the theoretical concentrations were within the range of ±20%. The deviations between the actual blood collection times and the theoretical blood collection times were in conformity with the relevant SOP (the points within 1 hour after administration were within the range of ±1 min, and the others were within 5% of the theoretical time).

[2] = test system: CCl4-induced chronic liver fibrosis model; test: Pharmacodynamic study in CCl4-induced chronic liver fibrosis model; format: in vivo, male C57BL/6 mice; parameters: Total score of liver injury / Ballooning change score: scale not given here
Procedure: The therapeutic effects of the test compound IDN-6556 and the compound of Example 1 in the CCl4-induced chronic liver fibrosis model of male C57BL/6 mice were tested.
Male C57BL/6 mice were randomly divided into 7 groups: pseudo model group (group 1), model group (group 2, solvent p.o., q.d), IDN-6556 (group 3, 3 mg/kg, p.o., bid), IDN-6556 (group 4, 10 mg/kg, p.o., bid), Example 1 (group 5, 3 mg/kg, p.o., bid), Example 1 (group 6, 10 mg/kg, p.o., bid)), Example 1 (group 7, 20 mg/kg, p.o., bid). CCl4 was formulated into a CCl4-olive oil mixed solution according to the doses by using olive oil, modeling is performed by orally administration three times a week for 4 weeks; and the pseudo model group was orally administered with the same volume of olive oil alone. Compounds were orally administrated from the day of modeling, twice a day for 28 days, while the pseudo model group and the model group were orally administered with an equal volume of drug solvent. On the next day after the last administration, the animals were fasted for 6 hours, followed by euthanizing, and the livers were collected. Liver tissues were fixed in 10% formalin solution for histopathological analysis.

[3] = oral administration, 0.5-6 h samples
[4] = 3 mg/kg, p.o., bid, 28 days, mean ± sem
[5] = 10 mg/kg, p.o., bid, 28 days, mean ± sem
[6] = different doses, oral twice a day for 28 days, vs model group

T1 sequence (Q14790 217-374 limits assumed): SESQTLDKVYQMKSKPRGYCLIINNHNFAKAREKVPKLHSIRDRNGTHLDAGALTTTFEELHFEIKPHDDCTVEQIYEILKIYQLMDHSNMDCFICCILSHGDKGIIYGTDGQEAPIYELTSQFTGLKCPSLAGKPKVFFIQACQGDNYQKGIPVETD
T1 sequence (Q14790 385-479 limits assumed): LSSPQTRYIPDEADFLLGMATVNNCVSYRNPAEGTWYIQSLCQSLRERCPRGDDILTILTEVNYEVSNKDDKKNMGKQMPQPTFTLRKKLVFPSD

SMILES	IC50 (Caspase-8)	IC50 (Caspase-3)	IC50 (Caspase-1)	other results
C[C@H](NC(=O)c1coc(-c2ccccc2)n1)C(=O)N[C@@H](CC(=O)O)C(=O)COc1c(F)c(F)cc(F)c1F [Example 7]	30 nM	20.2 nM	6.9 nM	–
C[C@H](NC(=O)c1cc(-c2ccccc2)no1)C(=O)N[C@@H](CC(=O)O)C(=O)COc1c(F)c(F)cc(F)c1F [Example 8]	18 nM	21.8 nM	5.5 nM	–
C[C@H](NC(=O)c1cc(-c2ccccc2)on1)C(=O)N[C@@H](CC(=O)O)C(=O)COc1c(F)c(F)cc(F)c1F [Example 9]	23.2 nM	44.4 nM	14.2 nM	–
C[C@H](NC(=O)c1cc(-c2cccc(Cl)c2)on1)C(=O)N[C@@H](CC(=O)O)C(=O)COc1c(F)c(F)cc(F)c1F [Example 10]	16.3 nM	22 nM	6.6 nM	–
C[C@H](NC(=O)c1cc(-c2ccccc2C(F)(F)F)on1)C(=O)N[C@@H](CC(=O)O)C(=O)COc1c(F)c(F)cc(F)c1F [Example 11]	22.6 nM	30 nM	9.2 nM	–
C[C@H](NC(=O)c1cc(-c2ccccc2F)on1)C(=O)N[C@@H](CC(=O)O)C(=O)COc1c(F)c(F)cc(F)c1F [Example 12]	17.9 nM	21 nM	6.7 nM	–
C[C@H](NC(=O)C(=O)Nc1ccccc1C(C)(C)C)C(=O)N[C@@H](CC(=O)O)C(=O)COc1c(F)c(F)cc(F)c1F [IDN-6556, reference compound]	–	–	–	Liver drug concentration ([1]; 0.5 h after oral (intragastric) administration): 8600 nmol/kg; Liver drug concentration ([1]; 2 h after oral (intragastric) administration): 930 nmol/kg; Liver drug concentration ([1]; 6 h after oral (intragastric) administration): 230 nmol/kg; concentration at 0.5 h ([1]; male, C57BL/6J, plasma, 0.5 h after oral (intragastric) administration, read-out: Plasma drug concentration): 435 nM; concentration at 2 h ([1]; male, C57BL/6J, plasma, 2 h after oral (intragastric) administration, read-out: Plasma drug concentration): 10.9 nM; concentration at 6 h ([1]; male, C57BL/6J, plasma, 6 h after oral (intragastric) administration, read-out: Plasma drug concentration): 5.79 nM; liver drug-time curve (area) [1, 3]: 9.347 µM·h; plasma drug-time curve (area) [1, 3]: 0.314 µM·h; Ballooning change score [2, 4]: 0.05 ± 0.04; Inflammatory cell infiltration [2, 4]: 1.55 ± 0.06; Percentage of liver fibrosis [2, 4]: 1.84 ± 0.07%; Total score of liver injury [2, 4]: 1.60 ± 0.07; Ballooning change score [2, 5]: 0.08 ± 0.04; Percentage of liver fibrosis [2, 5]: 1.86 ± 0.12%; Total score of liver injury [2, 5]: 1.43 ± 0.12; Effect on CCl4-induced liver tissue damage (in words) [2, 6]: significantly inhibit; Inhibitory effect on liver fibrosis (in words) [2, 6]: no clear inhibitory effect; Effect on CCl4-induced liver tissue damage (in words) ([2]; different doses, oral twice a day for 28 days, vs model group, listed as IND-6556): significantly improve
